Results reported in patent publication US9637493B2, “Substituted pyrrolopyrimidines as HDM2 inhibitors” (Merck Sharp & Dohme Corp., priority 2012, dated 2017).

Molecular target: HDM2 (Homo sapiens (Human), UniProt Q00987)
Test: HDM2 FRET assay (inhibition of p53 peptide binding to HDM2)
Details: truncated HDM2 residues 17 to 125, 0.5 nM; FITC labeled 8-mer peptide 3 nM; two hour incubation at room temperature
Method: Methods: An HDM2 FRET assay was developed to assess the compounds' inhibitory activity towards binding of p53 protein. […] (containing p53 binding surface, Science (1994) 265, 346-355), with N-terminal His and Thioredoxin tag was generated in pET32a expression vector and expressed in E. coli strain BL21(DE3)Rosetta. Protein was purified using Ni-affinity chromatography, followed by size exclusion chromatography using Superdex 75 26/60 column. […] After two hour incubation at room temperature in a humidified chamber plates were read on EnVision plate reader with the following settings: excitation: UV, […], two emission filters: 520 nm and 495 nm respectively. […] IC50 DETERMINATIONS: Dose-response curves were plotted from the inhibition data, from 10 point serial dilutions of inhibitory compounds. Concentration of compound was plotted against em520/Cem495 ratio signal. To generate IC50 values, the dose-response curves were fitted to a standard sigmoidal curve and IC50 values were derived by nonlinear regression analysis.

Chain of HDM2 (Q00987 17-125): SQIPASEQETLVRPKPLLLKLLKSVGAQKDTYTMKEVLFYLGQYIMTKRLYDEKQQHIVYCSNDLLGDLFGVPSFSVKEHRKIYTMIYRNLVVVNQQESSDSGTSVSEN

Cc1cn(C[C@H]2CC[C@H](C)CC2)c2c(-c3cccc(Cl)c3)nc(-c3noc(=O)[nH]3)nc12 [Example 5.2, 3-{4-(3-chlorophenyl)-7-methyl-5-[(trans-4-methylcyclohexyl)methyl]-5H-pyrrolo[3,2-d]pyrimidin-2-yl}-1,2,4-oxadiazol-5(4H)-one]
IC50: 107 nM

Cc1cn(C[C@H]2CC[C@H](C)CC2)c2c(-c3cncc(Cl)c3)nc(C(=O)O)nc12 [Example 5.3, 4-(5-chloropyridin-3-yl)-7-methyl-5-[(trans-4-methylcyclohexyl)methyl]-5H-pyrrolo[3,2-d]pyrimidine-2-carboxylic acid]
IC50: 88 nM

Cc1cn(C[C@H]2CC[C@H](C)CC2)c2c(-c3cncc(Cl)c3)nc(-c3noc(=O)[nH]3)nc12 [Example 5.4, 3-{4-(5-chloropyridin-3-yl)-7-methyl-5-[(trans-4-methylcyclohexyl)methyl]-5H-pyrrolo[3,2-d]pyrimidin-2-yl}-1,2,4-oxadiazol-5(4H)-one]
IC50: 36 nM

C[C@H]1CC[C@H](Cn2cc(-c3ccccc3)c3nc(C(=O)O)nc(-c4cncc(Cl)c4)c32)CC1 [Example 5.5, 4-(5-chloropyridin-3-yl)-5-[(trans-4-methylcyclohexyl)methyl]-7-phenyl-5H-pyrrolo[3,2-d]pyrimidine-2-carboxylic acid]
IC50: 72 nM

C[C@H]1CC[C@H](Cn2cc(Cc3ccccc3)c3nc(-c4n[nH]c(=O)o4)nc(-c4cncc(Cl)c4)c32)CC1 [Example 5.6, 5-{7-benzyl-4-(5-chloropyridin-3-yl)-5-[(trans-4-methylcyclohexyl)methyl]-5H-pyrrolo[3,2-d]pyrimidin-2-yl}-1,3,4-oxadiazol-2(3H)-one]
IC50: 54 nM

CC(C)Cc1cn(C[C@H]2CC[C@H](C)CC2)c2c(-c3cncc(Cl)c3)nc(C(=O)O)nc12 [Example 5.7, 4-(5-chloropyridin-3-yl)-5-[(trans-4-methylcyclohexyl)methyl]-7-(2-methylpropyl)-5H-pyrrolo[3,2-d]pyrimidine-2-carboxylic acid]
IC50: 71 nM

CC(C)Cc1cn(C[C@H]2CC[C@H](C)CC2)c2c(-c3cncc(Cl)c3)nc(-c3noc(=O)[nH]3)nc12 [Example 5.8, 3-[4-(5-chloropyridin-3-yl)-5-[(trans-4-methylcyclohexyl)methyl]-7-(2-methylpropyl)-5H-pyrrolo[3,2-d]pyrimidin-2-yl]-1,2,4-oxadiazol-5(4H)-one]
IC50: 35 nM

C[C@H]1CC[C@H](Cn2cc(CCc3cccnc3)c3nc(C(=O)O)nc(-c4cncc(Cl)c4)c32)CC1 [Example 6.1, 4-(5-chloropyridin-3-yl)-5-[(trans-4-methylcyclohexyl)methyl]-7-(2-pyridin-3-ylethyl)-5H-pyrrolo[3,2-d]pyrimidine-2-carboxylic acid]
IC50: 47 nM

C[C@H]1CC[C@H](Cn2cc(CCc3cccnc3)c3nc(-c4noc(=O)[nH]4)nc(-c4cncc(Cl)c4)c32)CC1 [Example 6.2, 3-[4-(5-chloropyridin-3-yl)-5-[(trans-4-methylcyclohexyl)methyl]-7-(2-pyridin-3-ylethyl)-5H-pyrrolo[3,2-d]pyrimidin-2-yl]-1,2,4-oxadiazol-5(4H)-one]
IC50: 13 nM

C[C@H]1CC[C@H](Cn2cc(Cc3cccnc3)c3nc(-c4noc(=O)[nH]4)nc(-c4cncc(Cl)c4)c32)CC1 [Example 7.1, 3-[4-(5-chloropyridin-3-yl)-5-[(trans-4-methylcyclohexyl)methyl]-7-(pyridin-3-ylmethyl)-5H-pyrrolo[3,2-d]pyrimidin-2-yl]-1,2,4-oxadiazol-5(4H)-one]
IC50: 52 nM

C[C@H]1CC[C@H](Cn2c(C(F)c3ccccc3F)cc3nc(-c4noc(=O)[nH]4)nc(-c4cncc(Cl)c4)c32)CC1 (stereo partly drawn) [Example 8.2, 3-{4-(5-chloropyridin-3-yl)-6-[fluoro(2-fluorophenyl)methyl]-5-[(trans-4-methylcyclohexyl)methyl]-5H-pyrrolo[3,2-d]pyrimidin-2-yl}-1,2,4-oxadiazol-5(4H)-one]
IC50: 2 nM
